Assay results taken from patent publication US4943562A, “Tetra- and pentapeptides containing the lysyl-arginyl-aspartyl sequence and their applications as medicines, particularly anti-thrombotic medicines” (Institut des Vaisseaux et du Sang, priority 1987, dated 1990).
Peptide text beside a SMILES is read from it.

Columns and labels:
[1] = water-solubility of the peptide; format: physicochemical
Text: This peptide is hydrophilic and its water-solubility is very good.

intravascular thrombus [2] = assay: experimental thrombosis: intravascular thrombus induced by a specific lesion of the arterial wall, rat; format: in vivo; conditions: direct intravenous injection
Protocol: Experimental work on thrombosis carried out on two different animal species (rat and guineapig) have shown that the peptides according to the invention, in particular the peptides of the general formula […] (II), viz. particularly peptide […] (peptide 1) and peptide […] The type of thrombus which is thus induced takes into account the participation of the blood platelets against which the peptide exerts its activity but also the reactivity of the injured vascular wall. […] In the same experimental thrombosis system, when a peptide according to the invention is used, particularly a peptide of the formula […]

intravascular thrombus [3] = assay: experimental thrombosis: intravascular thrombus induced by a specific lesion of the arterial wall, guineapig; format: in vivo; conditions: direct intravenous injection
Protocol: Experimental work on thrombosis carried out on two different animal species (rat and guineapig) have shown that the peptides according to the invention, in particular the peptides of the general formula […] (II), viz. particularly peptide […] (peptide 1) and peptide […] […] The type of thrombus which is thus induced takes into account the participation of the blood platelets against which the peptide exerts its activity but also the reactivity of the injured vascular wall.

Structure (SMILES) | water-solubility [1] | anti-thrombotic activity (intravascular thrombus [2]) | anti-thrombotic activity (intravascular thrombus [3])
N=C(N)NCCC[C@H](NC(=O)[C@@H](N)CCCCN)C(=O)N[C@@H](CC(=O)O)C(=O)N[C@@H](CO)C(=O)O [peptide 1, Lys-Arg-Asp-Ser] (H-KRDS-OH) | very good |  | 
N=C(N)NCCC[C@H](NC(=O)[C@H](CC(=O)O)NC(=O)[C@H](CCCNC(=N)N)NC(=O)[C@@H](N)CCCCN)C(=O)O [peptide 6, Lys-Arg-Asp-Arg] (H-KRDR-OH) |  | exert an anti-thrombotic activity | exert an anti-thrombotic activity
